EP2140864A2 (H. Lundbeck A/S, priority 2001, dated 2002)
Read-outs that look alike come from different tables or passages of the source.

Columns and labels:
human 5HT1E = target: T1, human 5HT1E (Homo sapiens, UniProt P28566); assay: Radioligand binding, 5HT1E receptor ([3H]-serotonin)
T1 construct: expressed in transfected cells
Experimental: (§1) Human 5HT1B, 5HT1D, 5HT1E, 5HT1F, and 5HT7 Receptors: The cell lysates of LM(tk-) clonal cell line stably transfected with the genes encoding each of these 5HT receptor-subtypes were prepared as described above. Cell membranes were suspended in 50mM Tris-HCl buffer (pH 7.4 at 37°C) containing 10 mM MgCl2, 0.2 mM EDTA, 10 µM pargyline, and 0.1% ascorbate. […] Nonspecific binding was determined in the presence of 10 µM serotonin. The bound radioligand was separated by filtration through GF/B filters using a cell harvester.
(§2) Binding data were analyzed using nonlinear regression and statistical techniques available in the GraphPAD Prism package (San Diego, CA). Enzymatic assay data were derived from a standard curve of reference compound data.

5HT transporter = 5HT transporter (Rattus norvegicus, UniProt P31652); assay: Binding at native 5HT transporter
5HT transporter, sequence (P31652 whole entry): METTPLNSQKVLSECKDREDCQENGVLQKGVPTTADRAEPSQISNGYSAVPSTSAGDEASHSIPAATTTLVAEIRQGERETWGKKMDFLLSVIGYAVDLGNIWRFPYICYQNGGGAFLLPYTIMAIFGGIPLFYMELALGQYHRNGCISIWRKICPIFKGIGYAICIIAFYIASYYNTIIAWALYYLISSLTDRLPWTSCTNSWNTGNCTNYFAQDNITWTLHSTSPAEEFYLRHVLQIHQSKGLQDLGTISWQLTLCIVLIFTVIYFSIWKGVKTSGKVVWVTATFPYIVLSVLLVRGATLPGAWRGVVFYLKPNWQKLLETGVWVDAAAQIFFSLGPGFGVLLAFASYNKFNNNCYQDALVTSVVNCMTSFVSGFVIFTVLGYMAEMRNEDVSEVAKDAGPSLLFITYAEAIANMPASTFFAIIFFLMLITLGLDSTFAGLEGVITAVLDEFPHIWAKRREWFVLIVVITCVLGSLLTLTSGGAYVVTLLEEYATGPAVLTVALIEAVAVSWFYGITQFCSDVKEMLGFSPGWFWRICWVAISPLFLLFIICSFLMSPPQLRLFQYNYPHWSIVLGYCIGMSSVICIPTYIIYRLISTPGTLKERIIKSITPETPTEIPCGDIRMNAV
Experimental: (§3) The binding properties of the compounds of the present invention were evaluated at one or more cloned receptors or native, tissue-derived transporters, using protocols described below.
(§4) The methods to determine binding affinity at native transporters are described in the following publications: 5HT transporter and NE transporter (Owens et al., 1997), and DA transporter (Javitch et al, 1984).
as §2

human 5HT1D = target: T2, human 5HT1D (Homo sapiens, UniProt P28221); assay: Radioligand binding, 5HT1D receptor ([3H]-serotonin)
T2 construct: expressed in transfected cells
T2 sequence (P28221 whole entry): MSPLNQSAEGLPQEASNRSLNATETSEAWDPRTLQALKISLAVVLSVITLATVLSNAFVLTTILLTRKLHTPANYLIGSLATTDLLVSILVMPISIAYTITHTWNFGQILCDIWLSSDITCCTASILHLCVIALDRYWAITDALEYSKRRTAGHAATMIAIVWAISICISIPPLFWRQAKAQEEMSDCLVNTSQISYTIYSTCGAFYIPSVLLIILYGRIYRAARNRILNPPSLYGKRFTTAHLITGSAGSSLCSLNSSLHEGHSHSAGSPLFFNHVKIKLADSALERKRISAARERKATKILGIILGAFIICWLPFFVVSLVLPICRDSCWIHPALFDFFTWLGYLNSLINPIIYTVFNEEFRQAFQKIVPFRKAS
Experimental: as §1, §2

rat 5HT2C receptor = target: T3, rat 5HT2C receptor (Rattus norvegicus, UniProt P08909); assay: Radioligand binding, 5HT2C receptor
T3 construct: expressed in transfected cells
T3 sequence (P08909 33-460): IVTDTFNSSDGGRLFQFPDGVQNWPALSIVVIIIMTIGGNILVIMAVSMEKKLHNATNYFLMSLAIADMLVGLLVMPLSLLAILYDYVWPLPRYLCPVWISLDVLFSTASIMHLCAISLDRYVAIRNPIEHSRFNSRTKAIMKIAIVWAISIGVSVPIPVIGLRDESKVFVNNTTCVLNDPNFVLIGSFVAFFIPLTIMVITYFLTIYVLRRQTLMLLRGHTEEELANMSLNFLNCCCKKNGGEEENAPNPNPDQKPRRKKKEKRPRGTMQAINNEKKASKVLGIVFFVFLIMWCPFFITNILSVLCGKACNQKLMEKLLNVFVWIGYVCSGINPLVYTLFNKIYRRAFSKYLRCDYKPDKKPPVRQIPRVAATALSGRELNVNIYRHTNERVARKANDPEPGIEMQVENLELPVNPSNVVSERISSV
Experimental: (§5) Other 5-HT Receptors: Other serotonin receptor binding assays were performed according to published methods: rat 5HT2C receptor (Julius et al., 1988); and 5-HT6 (Monsma, et al., 1993). The binding assays using the 5-HT4 receptor were performed according to the procedures described in U.S. Patent No. 5,766,879, the disclosure of which is hereby incorporated by reference in its entirety into this application.
as §2

human 5HT4 receptor = target: T4, human 5HT4 receptor (Homo sapiens, UniProt Q13639); assay: Radioligand binding, 5-HT4 receptor
T4 construct: expressed in transfected cells
T4 sequence (Q13639 whole entry): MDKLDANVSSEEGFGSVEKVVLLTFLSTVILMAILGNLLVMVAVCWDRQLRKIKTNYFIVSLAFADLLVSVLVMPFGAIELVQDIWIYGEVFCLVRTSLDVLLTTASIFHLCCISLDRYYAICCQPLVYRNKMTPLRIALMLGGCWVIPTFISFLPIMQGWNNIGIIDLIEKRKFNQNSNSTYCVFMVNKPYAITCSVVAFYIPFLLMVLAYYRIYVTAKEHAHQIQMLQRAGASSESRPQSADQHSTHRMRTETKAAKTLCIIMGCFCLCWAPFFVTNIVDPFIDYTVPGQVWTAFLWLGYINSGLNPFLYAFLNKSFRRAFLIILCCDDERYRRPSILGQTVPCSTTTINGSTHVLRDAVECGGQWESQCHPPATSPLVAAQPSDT
Experimental: as §5, §2

DA transporter = DA transporter (Rattus norvegicus, UniProt P23977); assay: Binding at native DA transporter
DA transporter, sequence (P23977 whole entry): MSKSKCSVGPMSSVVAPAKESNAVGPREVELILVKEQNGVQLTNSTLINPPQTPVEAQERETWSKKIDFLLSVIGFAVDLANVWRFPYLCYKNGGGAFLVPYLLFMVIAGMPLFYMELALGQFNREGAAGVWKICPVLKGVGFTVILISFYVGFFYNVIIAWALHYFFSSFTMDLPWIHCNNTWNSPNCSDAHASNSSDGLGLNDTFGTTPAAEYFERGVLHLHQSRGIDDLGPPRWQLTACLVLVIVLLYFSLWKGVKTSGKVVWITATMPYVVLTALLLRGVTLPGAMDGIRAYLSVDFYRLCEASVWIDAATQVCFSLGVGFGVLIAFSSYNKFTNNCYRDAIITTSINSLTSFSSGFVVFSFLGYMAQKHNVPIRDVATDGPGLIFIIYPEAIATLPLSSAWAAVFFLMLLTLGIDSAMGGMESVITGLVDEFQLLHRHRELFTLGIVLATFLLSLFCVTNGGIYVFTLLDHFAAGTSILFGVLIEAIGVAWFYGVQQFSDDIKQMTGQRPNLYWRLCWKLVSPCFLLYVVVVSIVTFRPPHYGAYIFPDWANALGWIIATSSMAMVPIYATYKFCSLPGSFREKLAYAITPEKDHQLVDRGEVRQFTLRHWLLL
Experimental: as §3, §4, §2

human GAL2 receptor = target: T5, human GAL2 receptor (Homo sapiens, UniProt O43603); assay: Radioligand binding at cloned human GAL2 receptor
T5 construct: expressed in transfected cells
T5 sequence (O43603 1-387): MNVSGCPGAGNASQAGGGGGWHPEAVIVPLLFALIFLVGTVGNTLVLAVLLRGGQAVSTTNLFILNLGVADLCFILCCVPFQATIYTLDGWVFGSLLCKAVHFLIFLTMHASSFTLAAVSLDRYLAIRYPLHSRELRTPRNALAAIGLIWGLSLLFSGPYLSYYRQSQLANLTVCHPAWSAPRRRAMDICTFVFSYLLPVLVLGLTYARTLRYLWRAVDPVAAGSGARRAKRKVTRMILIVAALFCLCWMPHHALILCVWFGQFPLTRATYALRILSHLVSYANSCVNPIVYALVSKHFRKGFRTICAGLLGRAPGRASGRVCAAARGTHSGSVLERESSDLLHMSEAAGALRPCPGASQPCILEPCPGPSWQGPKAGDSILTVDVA
In short: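 Membranes from CHO cells stably expressing human GAL2 and LM(tk-) cells stably expressing human GAL1, resuspended in binding buffer (10 mM NaCl, 20 mM HEPES, pH 7.4). Binding data fitted by nonlinear regression.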

[1] = Table 8; Ki h5HT1E divided by Ki hGAL3
[2] = Table 7; native transporter, head prints r (rat); read-out: r5HT Uptk Ki
[3] = Table 8; Ki r5HT Uptk divided by Ki hGAL3
[4] = Table 8; Ki h5HT1D divided by Ki hGAL3
[5] = Table 8; Ki r5HT2C divided by Ki hGAL3
[6] = Table 8; Ki h5HT4 divided by Ki hGAL3
[7] = Table 7; native transporter, head prints r (rat); read-out: rDA Uptk Ki
[8] = Table 8; Ki rDA Uptk divided by Ki hGAL3
[9] = pyrimidines, read-out: Ki GalR2

T1 sequence (P28566 whole entry): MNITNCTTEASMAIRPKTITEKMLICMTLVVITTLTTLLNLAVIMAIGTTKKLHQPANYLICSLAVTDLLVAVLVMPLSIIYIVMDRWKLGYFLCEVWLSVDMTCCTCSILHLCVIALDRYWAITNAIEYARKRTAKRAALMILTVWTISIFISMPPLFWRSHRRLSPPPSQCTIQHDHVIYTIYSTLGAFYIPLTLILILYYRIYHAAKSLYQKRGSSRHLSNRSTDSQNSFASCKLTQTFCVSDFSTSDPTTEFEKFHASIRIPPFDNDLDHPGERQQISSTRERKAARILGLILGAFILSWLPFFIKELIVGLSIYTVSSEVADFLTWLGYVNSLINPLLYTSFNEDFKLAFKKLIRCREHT

## Cc1ccc(Nc2cc(N(C)C)nc(N(C)CCc3c[nH]c4ccccc34)n2)cc1 [Example 77]
Human 5HT1E; Table 7; read-out: h5HT1E Ki
  Ki: 5.89 µM
Human 5HT1E; [1]
  selectivity ratio h5HT1E: >30
5HT transporter; [2]
  Ki: 0.821 µM
5HT transporter; [3]
  selectivity ratio r5HT Uptk: 10
Human 5HT1D; Table 7; read-out: h5HT1D Ki
  Ki: 0.716 µM
Human 5HT1D; [4]
  selectivity ratio h5HT1D: 9
Rat 5HT2C receptor; Table 7; read-out: r5HT2C Ki
  Ki: 0.456 µM
Rat 5HT2C receptor; [5]
  selectivity ratio r5HT2C: 6
Human 5HT4 receptor; Table 7; read-out: h5HT4 Ki
  Ki: 1.32 µM
Human 5HT4 receptor; [6]
  selectivity ratio h5HT4: 17
DA transporter; [7]
  Ki: 2.79 µM
DA transporter; [8]
  selectivity ratio rDA Uptk: >30
Human GAL2 receptor; [9]
  Ki: 0.709 µM

## O=C1C(=Nc2cccc(Cl)c2)c2ccccc2N1c1ccccc1 [Example 94, 3-[(3-CHLOROPHENYL)IMINO]-1-PHENYL-1,3-DIHYDRO-2H-INDOL-2-ONE]
Human 5HT1E; Table 7; read-out: h5HT1E Ki
  Ki: 25.2 µM
Human 5HT1E; [1]
  selectivity ratio h5HT1E: >100
5HT transporter; [2]
  Ki: 13 µM
5HT transporter; [3]
  selectivity ratio r5HT Uptk: >100
Human 5HT1D; Table 7; read-out: h5HT1D Ki
  Ki: 10.8 µM
Human 5HT1D; [4]
  selectivity ratio h5HT1D: >100
Rat 5HT2C receptor; Table 7; read-out: r5HT2C Ki
  Ki: 4.1 µM
Rat 5HT2C receptor; [5]
  selectivity ratio r5HT2C: >30
Human 5HT4 receptor; Table 7; read-out: h5HT4 Ki
  Ki: 4.12 µM
Human 5HT4 receptor; [6]
  selectivity ratio h5HT4: >30
DA transporter; [7]
  Ki: 2.2 µM
DA transporter; [8]
  selectivity ratio rDA Uptk: >130
Human GAL2 receptor; indolones, read-out: Ki GalR2
  Ki: > 10 µM

## COC[C@@H]1[C@@H](c2ccccc2)OCCN1c1nc(Nc2ccc(C)cc2)cc(N2CCCCC2)n1 [Example 49]
Human 5HT1E; [1]
  selectivity ratio h5HT1E: >100
Human 5HT1E; read-out: h5HT1E Ki; Table 7
  Ki: 23.9 µM
5HT transporter; [3]
  selectivity ratio r5HT Uptk: >100
5HT transporter; read-out: r5HT Uptk Ki; Table 7; native transporter, head prints r (rat)
  Ki: 40.7 µM
Human 5HT1D; [4]
  selectivity ratio h5HT1D: >30
Human 5HT1D; read-out: h5HT1D Ki; Table 7
  Ki: 16.9 µM
Rat 5HT2C receptor; [5]
  selectivity ratio r5HT2C: >30
Rat 5HT2C receptor; read-out: r5HT2C Ki; Table 7
  Ki: 6.69 µM
Human 5HT4 receptor; [6]
  selectivity ratio h5HT4: >30
Human 5HT4 receptor; read-out: h5HT4 Ki; Table 7
  Ki: 13.2 µM
DA transporter; [8]
  selectivity ratio rDA Uptk: 10
DA transporter; read-out: rDA Uptk Ki; Table 7; native transporter, head prints r (rat)
  Ki: 2.01 µM
Human GAL2 receptor; read-out: Ki GalR2, pyrimidines
  Ki: 3.27 µM

## O=C1C(=Nc2ccc(Cl)cc2)c2ccccc2N1c1ccccc1 [Example 97, 3-[(4-CHLOROPHENYL)IMINO]-1-PHENYL-1,3-DIHYDRO-2H-INDOL-2-ONE]
Human 5HT1E; Table 7; read-out: h5HT1E Ki
  Ki: 22.7 µM
Human 5HT1E; [1]
  selectivity ratio h5HT1E: >100
5HT transporter; [2]
  Ki: 36.3 µM
5HT transporter; [3]
  selectivity ratio r5HT Uptk: >100
Human 5HT1D; Table 7; read-out: h5HT1D Ki
  Ki: 14.2 µM
Human 5HT1D; [4]
  selectivity ratio h5HT1D: >100
Rat 5HT2C receptor; Table 7; read-out: r5HT2C Ki
  Ki: 1.95 µM
Rat 5HT2C receptor; [5]
  selectivity ratio r5HT2C: >30
Human 5HT4 receptor; Table 7; read-out: h5HT4 Ki
  Ki: 2.55 µM
Human 5HT4 receptor; [6]
  selectivity ratio h5HT4: >30
DA transporter; [7]
  Ki: 8.44 µM
DA transporter; [8]
  selectivity ratio rDA Uptk: >100
Human GAL2 receptor; indolones, read-out: Ki GalR2
  Ki: > 10 µM

## Cc1ccc(Nc2cc(N3CCCCC3)nc(N3CCN(c4ncccc4C(F)(F)F)CC3)n2)cc1 [Example 34]
Human 5HT1E; Table 7; read-out: h5HT1E Ki
  Ki: 28.3 µM
Human 5HT1E; [1]
  selectivity ratio h5HT1E: >100
5HT transporter; [2]
  Ki: 37.5 µM
5HT transporter; [3]
  selectivity ratio r5HT Uptk: >100
Human 5HT1D; Table 7; read-out: h5HT1D Ki
  Ki: 2.98 µM
Human 5HT1D; [4]
  selectivity ratio h5HT1D: >100
Rat 5HT2C receptor; Table 7; read-out: r5HT2C Ki
  Ki: 2.08 µM
Rat 5HT2C receptor; [5]
  selectivity ratio r5HT2C: >30
Human 5HT4 receptor; Table 7; read-out: h5HT4 Ki
  Ki: 20.8 µM
Human 5HT4 receptor; [6]
  selectivity ratio h5HT4: >100
DA transporter; [7]
  Ki: 3.9 µM
DA transporter; [8]
  selectivity ratio rDA Uptk: >100
Human GAL2 receptor; [9]
  Ki: 0.168 µM
